Activity calls are given as the source filed them. The rule behind the calls is not given here.
System: rodent lifetime carcinogenesis bioassay, tumor incidence TD50
Experiment: chronic cancer bioassays in animals – CPDB, compiled studies (AID 1745844)

Q: How did the TD50 (hamster, strain Syrian Golden, females, by gavage, site: forestomach, lesion: several types, types named in the paper, dosed 35 weeks, study length 55 weeks) turn out when `CC(=O)CNCC(O)C(O)N=O` (configuration not stated) was run?
A: 0.754 mg/kg/day

Q: What about the TD50 (hamster, strain Syrian Golden, females, by gavage, site: forestomach, lesion: squamous-cell papilloma, dosed 35 weeks, study length 55 weeks) of the same compound?
A: 0.868 mg/kg/day

Q: What about the TD50 (hamster, strain Syrian Golden, females, by gavage, site: liver, lesion: hepatocellular adenoma, dosed 35 weeks, study length 55 weeks) of the same compound?
A: 9.92 mg/kg/day

Q: And the TD50 (hamster, strain Syrian Golden, females, by gavage, site: liver, lesion: hepatocellular carcinoma, dosed 35 weeks, study length 55 weeks)?
A: 20.4 mg/kg/day

Q: What about the TD50 (hamster, strain Syrian Golden, females, by gavage, site: liver, lesion: several types, types named in the paper, dosed 35 weeks, study length 55 weeks) of the same compound?
A: 9.92 mg/kg/day

Q: What about the TD50 (hamster, strain Syrian Golden, females, by gavage, site: lung, lesion: carcinoma, dosed 35 weeks, study length 55 weeks) of the same compound?
A: 20.4 mg/kg/day

Q: What about the TD50 (hamster, strain Syrian Golden, females, by gavage, site: pancreatic duct, lesion: several types, types named in the paper, dosed 35 weeks, study length 55 weeks) of the same compound?
A: 3.63 mg/kg/day

Q: What about the TD50 (rat, strain Fischer 344, females, in drinking water, site: esophagus, lesion: carcinoma, dosed 31 weeks, study length 55 weeks) of the same compound?
A: 0.0637 mg/kg/day

Q: And the TD50 (rat, strain Fischer 344, females, in drinking water, site: esophagus, lesion: several types, types named in the paper, dosed 31 weeks, study length 55 weeks)?
A: 0.0352 mg/kg/day

Q: And the TD50 (rat, strain Fischer 344, females, in drinking water, site: forestomach, lesion: carcinoma, dosed 31 weeks, study length 55 weeks)?
A: 0.155 mg/kg/day

Q: And the TD50 (rat, strain Fischer 344, females, in drinking water, site: forestomach, lesion: several types, types named in the paper, dosed 31 weeks, study length 55 weeks)?
A: 0.0482 mg/kg/day

Q: What about the TD50 (rat, strain Fischer 344, females, in drinking water, site: liver, lesion: hepatocellular carcinoma, dosed 31 weeks, study length 55 weeks) of the same compound?
A: 1.3 mg/kg/day (inactive)

Q: And the TD50 (rat, strain Fischer 344, females, in drinking water, site: tongue, lesion: carcinoma, dosed 31 weeks, study length 55 weeks)?
A: 0.0964 mg/kg/day

Q: What about the TD50 (rat, strain Fischer 344, females, in drinking water, site: tongue, lesion: several types, types named in the paper, dosed 31 weeks, study length 55 weeks) of the same compound?
A: 0.0555 mg/kg/day

Q: What does the source list for `CCOc1ccc(NC(C)=O)cc1[N+](=O)[O-]`?
A: carcinogen call (mouse, strain B6C3F1, females, in feed, site: any site (literature study), lesion: several types, types named in the paper, dosed 78 weeks, study length 97 weeks): negative (inactive); TD50 (mouse, strain B6C3F1, females, in feed, site: lung, lesion: alveolar/bronchiolar adenoma + alveolar/bronchiolar carcinoma, dosed 78 weeks, study length 97 weeks): 30800 mg/kg/day; TD50 (mouse, strain B6C3F1, males, in feed, site: any site (literature study), lesion: several types, types named in the paper, dosed 78 weeks, study length 98 weeks): 3490 mg/kg/day; TD50 (mouse, strain B6C3F1, males, in feed, site: liver, lesion: hepatocellular adenoma + hepatocellular carcinoma + neoplastic nodule, dosed 78 weeks, study length 98 weeks): 2270 mg/kg/day; TD50 (mouse, strain B6C3F1, males, in feed, site: liver, lesion: hepatocellular adenoma + hepatocellular carcinoma, dosed 78 weeks, study length 98 weeks): 2270 mg/kg/day; carcinogen call (rat, strain Fischer 344, females, in feed, site: any site (literature study), lesion: several types, types named in the paper, dosed 78 weeks, study length 106 weeks): negative (inactive); TD50 (rat, strain Fischer 344, females, in feed, site: liver, lesion: hepatocellular adenoma + hepatocellular carcinoma + neoplastic nodule, dosed 78 weeks, study length 106 weeks): 6240 mg/kg/day; carcinogen call (rat, strain Fischer 344, males, in feed, site: any site (literature study), lesion: several types, types named in the paper, dosed 78 weeks, study length 105 weeks): negative (inactive)

Q: For `CN(CC(O)CO)N=O` (configuration not stated), which TD50 (hamster, strain Syrian Golden, females, by gavage, site: any site (literature study), lesion: several types, types named in the paper, dosed 41 weeks, study length 81 weeks) is on record?
A: 0.509 mg/kg/day

Q: What about the TD50 (hamster, strain Syrian Golden, females, by gavage, site: liver, lesion: all vascular tumors, dosed 41 weeks, study length 81 weeks) of the same compound?
A: 12.7 mg/kg/day (inactive)

Q: And the TD50 (hamster, strain Syrian Golden, females, by gavage, site: nasal mucosa, lesion: carcinoma, dosed 41 weeks, study length 81 weeks)?
A: 1.51 mg/kg/day

Q: And the TD50 (hamster, strain Syrian Golden, females, by gavage, site: nasal mucosa, lesion: several types, types named in the paper, dosed 41 weeks, study length 81 weeks)?
A: 0.94 mg/kg/day

Q: What about the TD50 (rat, strain Fischer 344, females, in drinking water, site: esophagus, lesion: several types, types named in the paper, dosed 40 weeks, study length 110 weeks) of the same compound?
A: 1.48 mg/kg/day

Q: And the TD50 (rat, strain Fischer 344, females, in drinking water, site: liver, lesion: hepatocellular carcinoma, dosed 40 weeks, study length 110 weeks)?
A: 3.13 mg/kg/day

Q: And the TD50 (rat, strain Fischer 344, females, in drinking water, site: liver, lesion: neoplastic nodule, dosed 40 weeks, study length 110 weeks)?
A: 1.01 mg/kg/day

Q: What about the TD50 (rat, strain Fischer 344, females, in drinking water, site: liver, lesion: several types, types named in the paper, dosed 40 weeks, study length 110 weeks) of the same compound?
A: 0.67 mg/kg/day

Q: What about the TD50 (rat, strain Fischer 344, females, in drinking water, site: lung, lesion: several types, types named in the paper, dosed 40 weeks, study length 110 weeks) of the same compound?
A: 0.646 mg/kg/day

Q: What about the TD50 (rat, strain Fischer 344, females, in drinking water, site: nasal cavity, lesion: several types, types named in the paper, dosed 40 weeks, study length 110 weeks) of the same compound?
A: 1.48 mg/kg/day

Q: Which TD50 (rat, strain Fischer 344, females, in feed, site: adrenal medulla, lesion: pheochromocytoma, benign, dosed 104 weeks, study length 104 weeks) does the source give for `COc1cc(S(C)=O)ccc1-c1nc2ccncc2[nH]1` (configuration not stated) here?
A: 450 mg/kg/day

Q: And the TD50 (rat, strain Fischer 344, females, in feed, site: adrenal medulla, lesion: several types, types named in the paper, dosed 104 weeks, study length 104 weeks)?
A: 385 mg/kg/day

Q: And the TD50 (rat, strain Fischer 344, males, in feed, site: adrenal medulla, lesion: pheochromocytoma, benign, dosed 104 weeks, study length 104 weeks)?
A: 45.4 mg/kg/day

Q: And the TD50 (rat, strain Fischer 344, males, in feed, site: adrenal medulla, lesion: pheochromocytoma, malignant, dosed 104 weeks, study length 104 weeks)?
A: 481 mg/kg/day

Q: And the TD50 (rat, strain Fischer 344, males, in feed, site: adrenal medulla, lesion: several types, types named in the paper, dosed 104 weeks, study length 104 weeks)?
A: 38.8 mg/kg/day

Q: How did the carcinogen call (mouse, strain Charles River CD1, females, in feed, site: liver, lesion: hemangioendothelial sarcoma, dosed 86 weeks, study length 86 weeks) turn out when `Cc1ccc2c(-c3ccccc3)nc(=O)n(C(C)C)c2c1` was run?
A: negative (inactive)

Q: And the TD50 (mouse, strain Charles River CD1, females, in feed, site: liver, lesion: hemangioma, dosed 86 weeks, study length 86 weeks)?
A: 48700 mg/kg/day (inactive)

Q: And the carcinogen call (mouse, strain Charles River CD1, females, in feed, site: liver, lesion: hepatocellular carcinoma, dosed 86 weeks, study length 86 weeks)?
A: negative (inactive)

Q: And the carcinogen call (mouse, strain Charles River CD1, females, in feed, site: lung, lesion: alveolar/bronchiolar adenoma, dosed 86 weeks, study length 86 weeks)?
A: negative (inactive)

Q: What about the carcinogen call (mouse, strain Charles River CD1, females, in feed, site: lung, lesion: alveolar/bronchiolar carcinoma, dosed 86 weeks, study length 86 weeks) of the same compound?
A: negative (inactive)

Q: What about the TD50 (mouse, strain Charles River CD1, males, in feed, site: liver, lesion: hemangioma, dosed 86 weeks, study length 86 weeks) of the same compound?
A: 14000 mg/kg/day (inactive)

Q: What about the TD50 (mouse, strain Charles River CD1, males, in feed, site: liver, lesion: hepatocellular carcinoma, dosed 86 weeks, study length 86 weeks) of the same compound?
A: 4350 mg/kg/day (inactive)

Q: And the TD50 (mouse, strain Charles River CD1, males, in feed, site: lung, lesion: alveolar/bronchiolar adenoma, dosed 86 weeks, study length 86 weeks)?
A: 5450 mg/kg/day (inactive)

Q: What about the carcinogen call (mouse, strain Charles River CD1, males, in feed, site: lung, lesion: alveolar/bronchiolar carcinoma, dosed 86 weeks, study length 86 weeks) of the same compound?
A: negative (inactive)

Q: What does the source list for `O=C1C2(Cl)C3(Cl)C4(Cl)C(Cl)(Cl)C5(Cl)C3(Cl)C1(Cl)C5(Cl)C24Cl` (configuration not stated)?
A: TD50 (mouse, strain B6C3F1, females, in feed, site: any site (literature study), lesion: several types, types named in the paper, dosed 80 weeks, study length 90 weeks): 1.57 mg/kg/day; TD50 (mouse, strain B6C3F1, females, in feed, site: liver, lesion: hepatocellular adenoma + hepatocellular carcinoma + neoplastic nodule, dosed 80 weeks, study length 90 weeks): 1.62 mg/kg/day; TD50 (mouse, strain B6C3F1, females, in feed, site: liver, lesion: hepatocellular carcinoma, dosed 80 weeks, study length 90 weeks): 1.62 mg/kg/day; TD50 (mouse, strain B6C3F1, males, in feed, site: any site (literature study), lesion: several types, types named in the paper, dosed 80 weeks, study length 89 weeks): 0.705 mg/kg/day; TD50 (mouse, strain B6C3F1, males, in feed, site: liver, lesion: hepatocellular adenoma + hepatocellular carcinoma + neoplastic nodule, dosed 80 weeks, study length 89 weeks): 0.705 mg/kg/day; TD50 (mouse, strain B6C3F1, males, in feed, site: liver, lesion: hepatocellular carcinoma, dosed 80 weeks, study length 89 weeks): 0.705 mg/kg/day; TD50 (mouse, strain B6C3F1, males, in feed, site: lung, lesion: alveolar/bronchiolar adenoma + alveolar/bronchiolar carcinoma, dosed 80 weeks, study length 89 weeks): 29.3 mg/kg/day; TD50 (rat, strain Osborne-Mendel, females, in feed, site: any site (literature study), lesion: several types, types named in the paper, dosed 80 weeks, study length 109 weeks): 1.83 mg/kg/day; TD50 (rat, strain Osborne-Mendel, females, in feed, site: liver, lesion: hepatocellular adenoma + hepatocellular carcinoma + neoplastic nodule, dosed 80 weeks, study length 109 weeks): 2.96 mg/kg/day; TD50 (rat, strain Osborne-Mendel, males, in feed, site: any site (literature study), lesion: several types, types named in the paper, dosed 80 weeks, study length 109 weeks): 1.42 mg/kg/day (inactive); TD50 (rat, strain Osborne-Mendel, males, in feed, site: liver, lesion: hepatocellular adenoma + hepatocellular carcinoma + neoplastic nodule, dosed 80 weeks, study length 109 weeks): 2.49 mg/kg/day; TD50 (rat, strain Sprague-Dawley, males, in feed, site: liver, lesion: neoplastic nodule, dosed 91 weeks, study length 91 weeks): 0.199 mg/kg/day

Q: Which carcinogen call (rat, strain Wistar, males, by gavage, site: any site (literature study), lesion: several types, types named in the paper, dosed 67 weeks, study length 67 weeks) does the source give for `CN(N=O)C(=O)c1ccccc1C(=O)N(C)N=O` here?
A: negative (inactive)

Q: What does the source list for `CC(=O)Nc1nnc(-c2ccc([N+](=O)[O-])o2)s1`?
A: TD50 (mouse, strain Swiss, females, in feed, site: any site (literature study), lesion: several types, types named in the paper, dosed 46 weeks, study length 55 weeks): 6.9 mg/kg/day; TD50 (mouse, strain Swiss, females, in feed, site: forestomach, lesion: several types, types named in the paper, dosed 46 weeks, study length 55 weeks): 6.74 mg/kg/day; TD50 (mouse, strain Swiss, females, in feed, site: forestomach, lesion: squamous-cell carcinoma, dosed 46 weeks, study length 55 weeks): 104 mg/kg/day; TD50 (mouse, strain Swiss, females, in feed, site: forestomach, lesion: squamous-cell papilloma, dosed 46 weeks, study length 55 weeks): 14.1 mg/kg/day; TD50 (rat, strain Sprague-Dawley, females, in feed, site: all sites, lesion: lymphoblastic lymphoma, dosed 40 weeks, study length 59 weeks): 111 mg/kg/day; TD50 (rat, strain Sprague-Dawley, females, in feed, site: forestomach, lesion: several types, types named in the paper, dosed 40 weeks, study length 59 weeks): 8.84 mg/kg/day; TD50 (rat, strain Sprague-Dawley, females, in feed, site: forestomach, lesion: squamous-cell papilloma, dosed 40 weeks, study length 59 weeks): 11.6 mg/kg/day; TD50 (rat, strain Sprague-Dawley, females, in feed, site: intestine, lesion: hemangioendothelial sarcoma, dosed 40 weeks, study length 59 weeks): 18.6 mg/kg/day; TD50 (rat, strain Sprague-Dawley, females, in feed, site: kidney/pelvis, lesion: transitional-cell carcinoma, dosed 40 weeks, study length 59 weeks): 16.9 mg/kg/day; TD50 (rat, strain Sprague-Dawley, females, in feed, site: liver, lesion: hemangioendothelial sarcoma, dosed 40 weeks, study length 59 weeks): 22.9 mg/kg/day; TD50 (rat, strain Sprague-Dawley, females, in feed, site: lung, lesion: alveolar-cell carcinoma, dosed 40 weeks, study length 59 weeks): 15.3 mg/kg/day; TD50 (rat, strain Sprague-Dawley, females, in feed, site: lung, lesion: hemangioendothelial sarcoma, dosed 40 weeks, study length 59 weeks): 52.3 mg/kg/day; TD50 (rat, strain Sprague-Dawley, females, in feed, site: mammary gland, lesion: adenocarcinoma, dosed 40 weeks, study length 59 weeks): 37.7 mg/kg/day; TD50 (rat, strain Sprague-Dawley, females, in feed, site: mammary gland, lesion: several types, types named in the paper, dosed 40 weeks, study length 59 weeks): 43.3 mg/kg/day; TD50 (rat, strain Sprague-Dawley, females, in feed, site: pancreas, lesion: hemangioendothelial sarcoma, dosed 40 weeks, study length 59 weeks): 81.6 mg/kg/day; TD50 (rat, strain Sprague-Dawley, females, in feed, site: several sites, sites named in the paper, lesion: hemangioendothelial sarcoma, dosed 40 weeks, study length 59 weeks): 10.6 mg/kg/day; TD50 (rat, strain Sprague-Dawley, females, in feed, site: small intestine, lesion: adenocarcinoma, dosed 40 weeks, study length 59 weeks): 111 mg/kg/day; TD50 (rat, strain Sprague-Dawley, females, in feed, site: small intestine, lesion: leiomyosarcoma, dosed 40 weeks, study length 59 weeks): 111 mg/kg/day

From PubChem BioAssay AID1745844 (Carcinogenic Potency Database (CPDB), 2022)
